Results published in ChEMBL document CHEMBL3045717, “Synthesis and pharmacological properties of some novel pyrazolidine and pyrazole derivatives” (2012).

Experiments:
Assay type in all cases: functional
Conditions in all cases: read-out: DIZ
Aspergillus niger [1] = assay: Antifungal activity against Aspergillus niger at 200 ug/ml after 48 to 72 hr by agar diffusion cup-plate method
Aspergillus niger [2] = assay: Antifungal activity against Aspergillus niger at 50 ug/ml after 48 to 72 hr by agar diffusion cup-plate method
Aspergillus niger [3] = assay: Antifungal activity against Aspergillus niger at 100 ug/ml after 48 to 72 hr by agar diffusion cup-plate method
Candida albicans [4] = assay: Antifungal activity against Candida albicans at 200 ug/ml after 48 to 72 hr by agar diffusion cup-plate method
Candida albicans [5] = assay: Antifungal activity against Candida albicans at 100 ug/ml after 48 to 72 hr by agar diffusion cup-plate method
Candida albicans [6] = assay: Antifungal activity against Candida albicans at 50 ug/ml after 48 to 72 hr by agar diffusion cup-plate method
Bacillus subtilis [7] = assay: Antibacterial activity against Bacillus subtilis at 200 ug/ml after 24 hr by agar diffusion cup plate method
Bacillus subtilis [8] = assay: Antibacterial activity against Bacillus subtilis at 100 ug/ml after 24 hr by agar diffusion cup plate method
Bacillus subtilis [9] = assay: Antibacterial activity against Bacillus subtilis at 50 ug/ml after 24 hr by agar diffusion cup plate method
Staphylococcus aureus [10] = assay: Antibacterial activity against Staphylococcus aureus at 200 ug/ml after 24 hr by agar diffusion cup-plate method
Staphylococcus aureus [11] = assay: Antibacterial activity against Staphylococcus aureus at 100 ug/ml after 24 hr by agar diffusion cup-plate method
Staphylococcus aureus [12] = assay: Antibacterial activity against Staphylococcus aureus at 50 ug/ml after 24 hr by agar diffusion cup-plate method
Pseudomonas aeruginosa [13] = assay: Antibacterial activity against Pseudomonas aeruginosa at 200 ug/ml after 24 hr by agar diffusion cup-plate method
Pseudomonas aeruginosa [14] = assay: Antibacterial activity against Pseudomonas aeruginosa at 100 ug/ml after 24 hr by agar diffusion cup-plate method
Pseudomonas aeruginosa [15] = assay: Antibacterial activity against Pseudomonas aeruginosa at 50 ug/ml after 24 hr by agar diffusion cup-plate method
Escherichia coli [16] = assay: Antibacterial activity against Escherichia coli at 100 ug/ml after 24 hr by agar diffusion cup-plate method
Escherichia coli [17] = assay: Antibacterial activity against Escherichia coli at 200 ug/ml after 24 hr by agar diffusion cup-plate method
Escherichia coli [18] = assay: Antibacterial activity against Escherichia coli at 50 ug/ml after 24 hr by agar diffusion cup-plate method

Structure (SMILES) | zone of inhibition at 200 µg/mL (Aspergillus niger [1]) | zone of inhibition at 50 µg/mL (Aspergillus niger [2]) | zone of inhibition at 100 µg/mL (Aspergillus niger [3]) | zone of inhibition at 200 µg/mL (Candida albicans [4]) | zone of inhibition at 100 µg/mL (Candida albicans [5]) | zone of inhibition at 50 µg/mL (Candida albicans [6]) | zone of inhibition at 200 µg/mL (Bacillus subtilis [7]) | zone of inhibition at 100 µg/mL (Bacillus subtilis [8]) | zone of inhibition at 50 µg/mL (Bacillus subtilis [9]) | zone of inhibition at 200 µg/mL (Staphylococcus aureus [10]) | zone of inhibition at 100 µg/mL (Staphylococcus aureus [11]) | zone of inhibition at 50 µg/mL (Staphylococcus aureus [12]) | zone of inhibition at 200 µg/mL (Pseudomonas aeruginosa [13]) | zone of inhibition at 100 µg/mL (Pseudomonas aeruginosa [14]) | zone of inhibition at 50 µg/mL (Pseudomonas aeruginosa [15]) | zone of inhibition at 100 µg/mL (Escherichia coli [16]) | zone of inhibition at 200 µg/mL (Escherichia coli [17]) | zone of inhibition at 50 µg/mL (Escherichia coli [18])
O=C1CS/C(=N/c2ccccc2)N1Nc1ccc([N+](=O)[O-])cc1[N+](=O)[O-] | 16.6 mm | 10.2 mm | 14.5 mm | 24.2 mm | 18.4 mm | 11.1 mm | 26.4 mm | 20.8 mm | 12 mm | 30.4 mm | 22.2 mm | 16.2 mm | 12 mm | 10.3 mm | 10.2 mm | 26.1 mm | 30.1 mm | 18.2 mm
CC1=NN(c2ccc([N+](=O)[O-])cc2[N+](=O)[O-])C(=O)C1 | 18 mm | 12.2 mm | 14 mm | 20.4 mm | 14 mm | 10 mm | 12 mm | 10.1 mm | 10.2 mm | 24.1 mm | 18 mm | 14.2 mm | 22 mm | 16 mm | 12.2 mm | 16 mm | 20.4 mm | 12 mm
O=C1CC(CCl)=NN1c1ccc([N+](=O)[O-])cc1[N+](=O)[O-] | 26.6 mm | 14 mm | 22.1 mm | 26.4 mm | 23 mm | 14.2 mm | 28 mm | 20.1 mm | 12.2 mm | 28.1 mm | 20 mm | 15 mm | 28.6 mm | 22.1 mm | 14 mm | 23 mm | 30.4 mm | 14.2 mm
CCn1cc(C(=O)O)c(=O)c2cc(F)c(N3CCNCC3)cc21 [NORFLOXACIN] | – | – | – | – | – | – | 31.3 mm | 31.3 mm | 31.3 mm | 30.4 mm | 30.4 mm | 30.4 mm | 31.1 mm | 31.1 mm | 31.1 mm | 35.4 mm | 35.5 mm | 35.4 mm
O=C1CC(=O)N(c2ccc([N+](=O)[O-])cc2[N+](=O)[O-])N1 | 14.1 mm | 10.1 mm | 12.2 mm | 10.2 mm | 10.1 mm | 6.2 mm | 16 mm | 12 mm | 10.2 mm | 18.1 mm | 12 mm | 8.4 mm | 16.1 mm | 13.2 mm | 12.1 mm | 18.1 mm | 20.2 mm | 16.2 mm
Clc1ccccc1C(c1ccccc1)(c1ccccc1)n1ccnc1 [CLOTRIMAZOLE] | 28.4 mm | 28.4 mm | 28.4 mm | 28.4 mm | 28.4 mm | 28.4 mm | – | – | – | – | – | – | – | – | – | – | – | –
Cc1cc(C)n(-c2ccc([N+](=O)[O-])cc2[N+](=O)[O-])n1 | 25 mm | 10.2 mm | 18.6 mm | 24.5 mm | 20 mm | 14.3 mm | 22.9 mm | 18.5 mm | 10.4 mm | 24 mm | 23 mm | 14 mm | 25 mm | 18.6 mm | 10.2 mm | 23 mm | 28.5 mm | 14.3 mm
NC1=NN(c2ccc([N+](=O)[O-])cc2[N+](=O)[O-])C(=O)C1 | 14.3 mm | 8.4 mm | 10.1 mm | 20.8 mm | 14 mm | 12.3 mm | 12 mm | 8.1 mm | 10.4 mm | 26 mm | 20 mm | 14 mm | 16.3 mm | 12.1 mm | 8.4 mm | 16 mm | 20.6 mm | 12.3 mm
CC(=O)N1C(=O)CC(=O)N1c1ccc([N+](=O)[O-])cc1[N+](=O)[O-] | 24 mm | 12.2 mm | 16.8 mm | 24.2 mm | 18.2 mm | 13.2 mm | 25.1 mm | 18.9 mm | 10.2 mm | 26.1 mm | 22 mm | 10 mm | 28 mm | 22.8 mm | 18.2 mm | 15.2 mm | 30.6 mm | 13.2 mm
O=[N+]([O-])c1ccc(NNC(=S)Nc2ccccc2)c([N+](=O)[O-])c1 | 16.2 mm | 10 mm | 14.2 mm | 18.4 mm | 14.1 mm | 11.5 mm | 18.4 mm | 14.1 mm | 10.2 mm | 18 mm | 14 mm | 10 mm | 20.2 mm | 14.2 mm | 12 mm | 14.1 mm | 18.6 mm | 10.2 mm
